Our source for the EC50 values is patent US9938271B2, “Inhibitors of human immunodeficiency virus replication” (VIIV HEALTHCARE UK (NO. 5) LIMITED, priority 2014, dated 2018).

The first test relates to NL-RLuc virus (recombinant HIV NL4-3 with Renilla Luciferase gene) in MT-2 cells. Put plainly: Inhibition of HIV replication (NL-RLuc luciferase reporter virus in MT-2 cells). To be noted: MT2, 120 h, MT-2 cells infected with NL-RLuc virus, 5 days of incubation, luciferase readout, 10% FBS. Type of test: cell-based. The text has this:
Inhibition of HIV Replication:
A recombinant NL-RLuc proviral clone was constructed in which a section of the nef gene from NL4-3 was replaced with the Renilla Luciferase gene. This virus is fully infectious and can undergo multiple cycles of replication in cell culture. In addition, the luciferous reporter provides a simple and easy method for quantitating the extent of virus growth and consequently, the antiviral activity of test compounds. The plasmid pNLRLuc contains the proviral NL-Rluc DNA cloned into pUC 18 at the PvuII site. The NL-RLuc virus was prepared by transfection of 293T cells with the plasmid pNLRLuc. Transfections were performed using the LipofectAMINE PLUS kit from Invitrogen (Carlsbad, Calif.) according to the manufacturer and the virus generated was titered in MT-2 cells. For susceptibility analyses, the titrated virus was used to infect MT-2 cells in the presence of compound, and after 5 days of incubation, cells were processed and quantitated for virus growth by the amount of expressed luciferase. Assay media was RPMI 1640 supplemented with 10% heat inactivated fetal bovine serum (FBS), 100 units/ml penicillin G/100 units/ml streptomycin, 10 mM HEPES buffer pH 7.55 and 2 mM L-glutamine. The results from at least 2 experiments were used to calculate the EC50 values. Luciferase was quantitated using the Dual Luciferase kit from Promega (Madison, Wis.). Susceptibility of viruses to compounds was determined by incubation in the presence of serial dilutions of the compound. The 50% effective concentration (EC50) was calculated by using the exponential form of the median effect equation where (Fa)=1/[1+(ED50/drug conc.)^m] (Johnson V A, Byington R T. Infectivity Assay. In Techniques in HIV Research. ed. Aldovini A, Walker B D. 71-76. New York: Stockton Press. 1990). Activity equal to A refers to a compound having an EC50≤100 nM, while B and C denote compounds having an EC50 between 100 nM and 1 uM (B) or >1 uM (C).
For orientation: In a reporter assay the amount or activity of a reporter protein is the signal.
A word on the EC50: it is the concentration at which the effect is half-maximal. Take `Cc1cn2cc(-c3cccc(-c4ccc(F)c(F)c4F)c3)nc2c(-c2ccc3c(c2)CCCO3)c1[C@H](OC(C)(C)C)C(=O)O` [Example 8, (S)-2-(tert-Butoxy)-2-(8-(chroman-6-yl)-6-methyl-2-(2′,3′,4′-trifluoro-[1,1′-biphenyl]-3-yl)imidazo[1,2-a]pyridin-7-yl)acetic acid]: the EC50 came out at 0.01 µM.
Still for that read-out and setting: with `Cc1cn2cc(-c3cccc(-c4ccccc4F)c3)nc2c(-c2cc(F)c3c(c2C)CCCO3)c1[C@H](OC(C)(C)C)C(=O)O` [Example 3, (2S)-2-(tert-Butoxy)-2-(8-(8-fluoro-5-methylchroman-6-yl)-2-(2′-fluoro-[1,1′-biphenyl]-3-yl)-6-methylimidazo[1,2-a]pyridin-7-yl)acetic acid] the figure was 0.011 µM; with `Cc1cn2cc(-c3cccc(-c4ccccc4F)c3)nc2c(-c2ccccc2F)c1[C@H](OC(C)(C)C)C(=O)O` [Example 4, (2S)-2-(tert-Butoxy)-2-(2-(2′-fluoro-[1,1′-biphenyl]-3-yl)-8-(2-fluorophenyl)-6-methylimidazo[1,2-a]pyridin-7-yl)acetic acid], 0.265 µM; with `Cc1cn2cc3nc2c(c1[C@H](OC(C)(C)C)C(=O)O)N1CCC(C)(CC1)OCCCC[C@H](C)Oc1cc(F)ccc1-c1cccc-3c1` [Example 9, (2S)-2-(tert-Butoxy)-2-[(22S)-18-fluoro-4,22,28-trimethyl-21,27-dioxa-1,6,8-triazahexacyclo[26.2.2.1^6,9.1^10,14.0^2,7.0^15,20]tetratriaconta-2,4,7,9(34),10(33),11,13,15,17,19-decaen-3-yl]acetic acid], 0.036 µM.
Regarding `Cc1cn2cc(-c3cccc(-c4ccccc4F)c3)nc2c(-c2ccc3c(c2)CCCO3)c1[C@H](OC(C)(C)C)C(=O)O` [Example 7, (S)-2-(tert-Butoxy)-2-(8-(chroman-6-yl)-2-(2′-fluoro[1,1′-biphenyl]-3-yl)-6-methylimidazo[1,2-a]pyridin-7-yl)acetic acid], the EC50 is 0.019 µM.
For the compound `Cc1cn2c(C(C)(C)C)c3nc2c(c1[C@H](OC(C)(C)C)C(=O)O)N1CCC(C)(CC1)OCCCC[C@H](C)Oc1cc(F)ccc1-c1cccc-3c1` [Example 10, (2S)-2-(tert-Butoxy)-2-[(22S)-34-tert-butyl-18-fluoro-4,22,28-trimethyl-21,27-dioxa-1,6,8-triazahexacyclo[26.2.2.1^6,9.1^10,14.0^2,7.0^15,20]tetratriaconta-2,4,7,9 (34),10(33),11,13,15,17,19-decaen-3-yl]acetic acid], the EC50 was 0.148 µM.

The same test, now with this note: {}.
For `Cc1cn2cc(-c3cccc(-c4ccc(F)cc4)c3)nc2c(-c2cc(F)c3c(c2C)CCCO3)c1[C@H](OC(C)(C)C)C(=O)O` (single isomer, unassigned) [Example 2], the EC50 stood at 0.187 µM.
The same measure, in the same setting: the figure for `Cc1ccccc1-c1cccc(-c2cn3cc(C)c([C@H](OC(C)(C)C)C(=O)O)c(-c4cc(F)c5c(c4C)CCCO5)c3n2)c1` (single isomer, unassigned) [Example 5] is 0.034 µM; for `Cc1ccccc1-c1cccc(-c2cn3cc(C)c([C@H](OC(C)(C)C)C(=O)O)c(-c4cc(F)c5c(c4C)CCCO5)c3n2)c1` (single isomer, unassigned) [Example 6] it is 0.56 µM.
The same measure, in the same setting: the figure for `Cc1cn2cc(-c3cccc(-c4ccc(F)cc4)c3)nc2c(-c2cc(F)c3c(c2C)CCCO3)c1[C@H](OC(C)(C)C)C(=O)O` (single isomer, unassigned) [Example 1] is 0.016 µM.
